From patent US20260272897A1 (Bayer Aktiengesellschaft, priority 2024, published 2026)
Where two headings read alike, the source gives them in different places.

Assays:
[1] = in vivo; cited from earlier work
[2] = tested on: patients with heart failure and a left ventricular ejection fraction ≥40%; format: in vivo

## CCOc1ncc(C)c2c1[C@H](c1ccc(C#N)cc1OC)C(C(N)=O)=C(C)N2 [finerenone, (4S)-4-(4-cyano-2-methoxyphenyl)-5-ethoxy-2,8-dimethyl-1,4-dihydro-1,6-naphthyridine-3-carboxamide]
[1]
  active metabolites: no active metabolites
[2]; bilirubin Tertile 2 0.5-0.6 mg/dL
  Total worsening HF events: Event rate per 100 PY: 9.7 per 100 PY
[2]; bilirubin Tertile 3 ≥0.7 mg/dL
  Total worsening HF events: Event rate per 100 PY: 12.6 per 100 PY
[2]; finerenone group, median 32 months
  primary events (total worsening heart failure events and cardiovascular death), number of events: 1,083
